Results taken from US20070031328A1, “Radiolabeled-pegylation of ligands for use as imaging agents” (priority 2005, published 2007).
Where two headings read alike, the source gives them in different places.

What was measured:
[1] = target: T1, Ab aggregates of AD brain homogenates (Homo sapiens, UniProt P05067); settings: [125I]IMPY, values marked as from refs (20), (6), (15); cited from earlier work
T1 construct: to Ab aggregates of AD brain homogenates; from tissue; host or cells: post-mortem grey matter of AD patients, homogenised in PBS

[2] = log of partition coefficient between 1-Octanol and buffer; compounds marked as from ref (20); cited from earlier work
[3] = Partition coefficients, 1-octanol/buffer; assay type: physicochemical; settings: log of partition coefficient between 1-Octanol and buffer (0.1 M phosphate, pH 7.4)
Protocol: Partition coefficients were measured by mixing the [^18F]tracer with 3 g each of 1-octanol and buffer (0.1 M phosphate, pH 7.4) in a test tube. The test tube was vortexed for 3 min at room temperature, followed by centrifugation for 5 min. Two weighed samples (0.5 g each) from the 1-octanol and buffer layers were counted in a well counter. The partition coefficient was determined by calculating the ratio of cpm/g of 1-octanol to that of buffer. Samples from the 1-octanol layer were re-partitioned until consistent partitions of coefficient values were obtained (usually the 3rd or 4th partition). The measurement was done in triplicate and repeated three times.

[4] = target: T1, Ab aggregates of AD brain homogenates; assay: Inhibition of [125I]IMPY binding to Aβ aggregates of AD brain homogenates; set-up: species or system human (AD patients)
Protocol: Postmortem brain tissues were obtained from AD patients at autopsy, and neuropathological diagnosis was confirmed by current criteria (NIA-Reagan Institute Consensus Group, 1997). Homogenates were then prepared from dissected gray matters from AD patients in phosphate buffered saline (PBS, pH 7.4) at the concentration of approximately 100 mg wet tissue/ml (motor-driven glass homogenizer with setting of 6 for 30 sec).
(§1) Binding assays were carried out in 12×75 mm borosilicate glass tubes. […] The mixture was incubated at 37° C. for 2 hr and the bound and the free radioactivity were separated by vacuum filtration through Whatman GF/B filters using a Brandel M-24R cell harvester followed by 2×3 ml washes of PBS at room temperature. Filters containing the bound ^125I ligand were assayed for radioactivity content in a gamma counter (Packard 5000) with 70% counting efficiency.
as §1, with “efficiency. […] The results of inhibition experiments were subjected to nonlinear regression analysis using EBDA by which Ki values were calculated.” for “efficiency.”

[5] = Periodic HPLC injection of purified [18F]8b (second peak formation); assay type: physicochemical; settings: purified tracer injected periodically on HPLC after purification; attributed to E and Z isomers
Protocol: Radiolabeled [^18F]8b was prepared from the mesylate precursor in moderate radiochemical yield (23%) but unfortunately could not be prepared in good radiochemical purity. The formation of a second peak was evident within minutes of labeling. […] They attribute the formation of a second peak to the facile formation of E and Z isomers (30).
[^18F]8b from precursor 11: (HPLC conditions: Phenomenex Gemini C18 semi-prep column [(5.0×250 mm, 5 μm); Acetonitrile/water 60/40; flow rate 3 mL/min)
Retention time of ^18F-labeled product was 28.0 min., well separated from the major hydrolysis by-product (Rt=11.8 min.). The product was isolated in 23% radiochemical yield (decay corrected) and greater than 98% radiochemical purity. Purified [^18F]8b was injected periodically after purification. Formation of a second peak increased to 50% of the parent compound.

[6] = 1-octanol/buffer, read-out: logP

T1 sequence (P05067 672-713 limits assumed): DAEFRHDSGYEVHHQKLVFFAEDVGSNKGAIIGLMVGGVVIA

logP [3, 6] | Ki [4] | Structure (SMILES) | further results
– | – | CNc1ccc(/C=C/c2nc3ccc(OCCF)cc3o2)cc1 [BF-168, reference compound] | Ki [1]: 6.4 nM
– | – | CNc1ccc(/C=C/c2ccc(OCCOCCOCCOCCOCCF)cc2)cc1 [Compound 1d] | logP [2]: 2.27; Ki [1]: 6.8 ± 0.8 nM
2.19 | – | CN(C)c1ccc(-c2cn3cc(I)ccc3n2)cc1 [IMPY, 6-iodo-2-(4′-dimethylamino)phenyl-imidazo[1,2-a]pyridine, reference compound] | –
– | – | CNc1ccc(/C=C/c2ccc(O)cc2)cc1 [SB-13, reference compound] | logP [3]: 2.36
3.04 | 3.8 ± 0.5 nM | CNc1ccc(-c2nc3ccc(OCCOCCOCCF)cc3s2)cc1 [Compound 5b, 2-[4′-(methylamino)phenyl]-6-{2-[2-(2-fluoroethoxy)-ethoxy]ethoxy}benzothiazole] | –
2.93 | 14.5 ± 5 nM | CN(C)c1ccc(C=Cc2nc3ccc(OCCOCCOCCF)cc3o2)cc1 [Compound 8b, 6-(2-(2-(2-fluoroethoxy)-ethoxy)-ethoxy)-[2-(4-dimethylaminophenyl)-vinyl]-benzooxazol] | –
3.04 | 2.2 ± 0.5 nM | CNc1ccc(-c2nc3ccc(OCCOCCF)cc3s2)cc1 [Compound 5a, 2-[4′-(methylamino)phenyl]-6-[2-(2-fluoroethoxy)-ethoxy]benzothiazole] | –
2.99 | 4.7 ± 0.9 nM | CNc1ccc(-c2nc3ccc(OCCOCCOCCOCCOCCOCCF)cc3s2)cc1 [Compound 5c, 2-[4′-(methylamino)phenyl]-6-{2-[2-(2-{2-[2-(2-fluoroethoxy)-ethoxy]ethoxy}ethoxy)ethoxy]ethoxy}benzothiazole] | –
– | – | CNc1ccc(/C=C/c2ccc(OCCOCCOCCF)cc2)cc1 [Compound 1b] | logP [2]: 2.41; Ki [1]: 6.7 ± 0.3 nM
– | – | CN(C)c1ccc(/C=C/c2nc3ccc(OCCOCCOCC[18F])cc3o2)cc1 [[^18F]8b] | Formation of a second peak, of the parent compound [5]: 50%
– | – | CNc1ccc(/C=C/c2ccc(OCCOCCOCCOCCF)cc2)cc1 [Compound 1c] | logP [2]: 2.05; Ki [1]: 4.4 ± 0.8 nM
2.69 | 30 ± 2.5 nM | CN(C)c1ccc(-c2cn3cc(OCCOCCOCCF)ccc3n2)cc1 [Compound 12c, 6-(2-fluoroethoxy-ethoxy-ethoxy)-2-(4-dimethylamino-)phenyl-imidazo[1,2-a]pyridine] | –
– | 10 ± 0.2 nM | CN(C)c1ccc(/C=C/c2nc3ccc(OCCOCCOCCOCCOCCOCCF)cc3o2)cc1 [Compound 8c, 6-(2-(2-(2-(2-(2-(2-fluoroethoxy)-ethoxy)-ethoxy)-ethoxy)-ethoxy)-ethoxy)-[2-(4-dimethylaminophenyl)-vinyl]-benzooxazol] | –
– | 96 ± 14 nM | CN(C)c1ccc(-c2cn3cc(OCCOCCOCCOCCOCCOCCF)ccc3n2)cc1 [Compound 12d, 6-(2-fluoroethoxy-ethoxy-ethoxy-ethoxy-ethoxy-ethoxy)-2-(4-dimethylamino-)phenyl-imidazo[1,2-a]pyridine] | –
– | 31 ± 9 nM | CN(C)c1ccc(-c2cn3cc(OCCOCCF)ccc3n2)cc1 [Compound 12b, 6-(2-fluoroethoxy-ethoxy)-2-(4-dimethylamino-)phenyl-imidazo[1,2-a]pyridine] | –
– | 387 ± 12 nM | CN(C)c1ccc(-c2cn3cc(OCCOCCOCCOCCOCCOCCOCCOCCF)ccc3n2)cc1 [Compound 12e, 6-(2-fluoroethoxy-ethoxy-ethoxy-ethoxy-ethoxy-ethoxy-ethoxy-ethoxy)-2-(4-dimethylamino-) phenyl-imidazo[1,2-a]pyridine] | –
– | – | CNc1ccc(/C=C/c2ccc(OCCOCCF)cc2)cc1 [Compound 1a] | logP [2]: 2.53; Ki [1]: 2.9 ± 0.2 nM
